# Reference: patent US20050191252A1, “Skin beautification cosmetic system using iontophoresis device, ultrasonic facial stimulator, and cosmetic additive” (priority 2004, published 2005)
# Like-named read-outs stand apart in the source and are kept apart here.
# How the values were obtained:
# [1] = Vitamin C osmosis comparison using autoradiography (Test Example 3); type: in vivo, hairless rat
# Text: Vitamin C osmosis comparison using autoradiography.
# These figures (photographs) display a cross-section of rat skin tissue, wherein black dots in the epidermis and dermis indicate vitamin C.
# [2] = rat, in vivo
# Description: The present inventor introduced a 0.1% diluted solution of C-ascorbic acid (hereinafter referred to as Vitamin C) into the back skin of a rat by simple external application and iontophoresis to compare osmosis of vitamin C using a scintillation counter and autoradiography.
# A 0.1% vitamin C solution was applied to the back skin of a hairless rat for 20 seconds by iontophoresis or for 10 minutes by simple external application. Tissue samples were collected at prescribed intervals (Samples of iontophoresis application: control, 0.5 h, 1 h, 2 h, 3 h, and 6 h; samples of simple external application: control, 1 h, 2 h, 3 h, and 6 h). Each collected sample was cut into two pieces, one of which was separated into epidermis and dermis for use as a scintillation counter sample. A lyophilized section was prepared from the other piece of the sample and developed for autoradiography analysis. The vitamin C concentration in each tissue was determined using IR analysis.
# [3] = Vitamin C osmosis into the human skin (Test Example 1), iontophoretic introduction, HPLC of epidermis and dermis; details: human thigh skin, five hours after five minutes iontophoretic introduction
# Description: <Experiment Procedure> • (1) Vitamin C was iontophoretically introduced for five minutes. • (2) After five hours, 5 mm of the skin was punched, separated into epidermis and dermis, and freeze dried. • (3) The Vitamin C concentration in the epidermis and dermis was determined by HPLC. • 1) The freeze dry samples were dissolved in 500 □1 of a moving layer solvent. • 2) The solution was ultrasonically treated for 10 minutes, • 3) filtered through a 0.2 mm filter, and • 4) subjected to HPLC measurement.
# Moving layer: A 0.08 M CH3COOH—CH3COONa buffer solution (pH 5.0) containing 2.8 mM Mn-hexyl amine, 0.1 mM disodium edetate, and 2% methanol. • Measuring amount: 20 □1 • Flow rate: 0.8 ml/min. • Wavelength: 254 nm • Column: ODS column oven: 40° C.
compound,measurement,setting,value
"O=C1O[C@H]([C@@H](O)CO)C(O)=C1O [Vitamin C, C-ascorbic acid]",penetration from the epidermis into the dermis (autoradiography),"[1]; iontophoresis application, rat back skin (FIG. 7)",started to penetrate at 0.5 hour and more abundantly after one hour
same,penetration from the epidermis into the dermis (autoradiography),"[1]; simple external application, rat back skin (FIG. 6)",progressively penetrated from the epidermis into the dermis over time
same,osmosis by iontophoresis application relative to simple external application,[2]; hairless,about 30 times
same,time at which concentration reached maximum,[2]; hairless,0.5 h
same,time at which concentration reached maximum,[2],one
same,"Dermis (ppm), Vitamin C concentration",[3],0.05 ppm
same,"Epidermis (ppm), Vitamin C concentration",[3],0.02 ppm
